Experiment: Stability of cannabinoid and Vitamin E components of Beverage 1 (AB White) stored at 8° C. and 21-25° C., LCMSMS over 570 days
Format: physicochemical
Settings: for Stability in AB White, 8° C. (content by LCMSMS): beverage stored at 8° C.; for Stability in AB White, 21-25° C. (content by LCMSMS): beverage stored at 21-25° C.
Procedure: The LCMSMS was calibrated for 0-1000 ng/ml cannabinoids with the same resin material used in the preparation of the concentrates. At each time period, 100 ml of beverage was diluted with 10 ml of methanol and injected into the LCMSMS for analysis.

Compound: CCCCCc1cc(O)c2c(c1)OC(C)(CCC=C(C)C)C=C2 (centres unmarked) [CBC, cannabichromene]
- Stability in AB White, 8° C. (content by LCMSMS) (day 0): 0.320 µg/mL
- Stability in AB White, 8° C. (content by LCMSMS) (day 1): 0.314 µg/mL
- Stability in AB White, 8° C. (content by LCMSMS) (day 2): 0.315 µg/mL
- Stability in AB White, 8° C. (content by LCMSMS) (day 3): 0.322 µg/mL
- Stability in AB White, 8° C. (content by LCMSMS) (day 5): 0.322 µg/mL
- Stability in AB White, 8° C. (content by LCMSMS) (day 8): 0.318 µg/mL
- Stability in AB White, 8° C. (content by LCMSMS) (day 9): 0.319 µg/mL
- Stability in AB White, 8° C. (content by LCMSMS) (day 10): 0.314 µg/mL
- Stability in AB White, 8° C. (content by LCMSMS) (day 11): 0.314 µg/mL
- Stability in AB White, 8° C. (content by LCMSMS) (day 12): 0.319 µg/mL
- Stability in AB White, 8° C. (content by LCMSMS) (day 15): 0.317 µg/mL
- Stability in AB White, 8° C. (content by LCMSMS) (day 16): 0.320 µg/mL
- Stability in AB White, 8° C. (content by LCMSMS) (day 17): 0.315 µg/mL
- Stability in AB White, 8° C. (content by LCMSMS) (day 18): 0.312 µg/mL
- Stability in AB White, 8° C. (content by LCMSMS) (day 19): 0.317 µg/mL
- Stability in AB White, 8° C. (content by LCMSMS) (day 22): 0.315 µg/mL
- Stability in AB White, 8° C. (content by LCMSMS) (day 23): 0.321 µg/mL
- Stability in AB White, 8° C. (content by LCMSMS) (day 24): 0.316 µg/mL
- Stability in AB White, 8° C. (content by LCMSMS) (day 25): 0.310 µg/mL
- Stability in AB White, 8° C. (content by LCMSMS) (day 26): 0.316 µg/mL
- Stability in AB White, 8° C. (content by LCMSMS) (day 29): 0.321 µg/mL
- Stability in AB White, 8° C. (content by LCMSMS) (day 30): 0.317 µg/mL
- Stability in AB White, 8° C. (content by LCMSMS) (day 60): 0.316 µg/mL
- Stability in AB White, 8° C. (content by LCMSMS) (day 90): 0.318 µg/mL
- Stability in AB White, 8° C. (content by LCMSMS) (day 120): 0.311 µg/mL
- Stability in AB White, 8° C. (content by LCMSMS) (day 150): 0.314 µg/mL
- Stability in AB White, 8° C. (content by LCMSMS) (day 180): 0.319 µg/mL
- Stability in AB White, 8° C. (content by LCMSMS) (day 210): 0.309 µg/mL
- Stability in AB White, 8° C. (content by LCMSMS) (day 240): 0.316 µg/mL
- Stability in AB White, 8° C. (content by LCMSMS) (day 270): 0.316 µg/mL
- Stability in AB White, 8° C. (content by LCMSMS) (day 300): 0.313 µg/mL
- Stability in AB White, 8° C. (content by LCMSMS) (day 330): 0.316 µg/mL
- Stability in AB White, 8° C. (content by LCMSMS) (day 360): 0.306 µg/mL
- Stability in AB White, 8° C. (content by LCMSMS) (day 390): 0.310 µg/mL
- Stability in AB White, 8° C. (content by LCMSMS) (day 420): 0.307 µg/mL
- Stability in AB White, 8° C. (content by LCMSMS) (day 450): 0.312 µg/mL
- Stability in AB White, 8° C. (content by LCMSMS) (day 480): 0.305 µg/mL
- Stability in AB White, 8° C. (content by LCMSMS) (day 510): 0.295 µg/mL
- Stability in AB White, 8° C. (content by LCMSMS) (day 540): 0.299 µg/mL
- Stability in AB White, 8° C. (content by LCMSMS) (day 570): 0.293 µg/mL
- Stability in AB White, 21-25° C. (content by LCMSMS) (day 0): 0.320 µg/mL
- Stability in AB White, 21-25° C. (content by LCMSMS) (day 1): 0.313 µg/mL
- Stability in AB White, 21-25° C. (content by LCMSMS) (day 2): 0.318 µg/mL
- Stability in AB White, 21-25° C. (content by LCMSMS) (day 3): 0.311 µg/mL
- Stability in AB White, 21-25° C. (content by LCMSMS) (day 5): 0.323 µg/mL
- Stability in AB White, 21-25° C. (content by LCMSMS) (day 8): 0.319 µg/mL
- Stability in AB White, 21-25° C. (content by LCMSMS) (day 9): 0.307 µg/mL
- Stability in AB White, 21-25° C. (content by LCMSMS) (day 10): 0.312 µg/mL
- Stability in AB White, 21-25° C. (content by LCMSMS) (day 11): 0.311 µg/mL
- Stability in AB White, 21-25° C. (content by LCMSMS) (day 12): 0.316 µg/mL
- Stability in AB White, 21-25° C. (content by LCMSMS) (day 15): 0.311 µg/mL
- Stability in AB White, 21-25° C. (content by LCMSMS) (day 16): 0.321 µg/mL
- Stability in AB White, 21-25° C. (content by LCMSMS) (day 17): 0.323 µg/mL
- Stability in AB White, 21-25° C. (content by LCMSMS) (day 18): 0.313 µg/mL
- Stability in AB White, 21-25° C. (content by LCMSMS) (day 19): 0.316 µg/mL
- Stability in AB White, 21-25° C. (content by LCMSMS) (day 22): 0.322 µg/mL
- Stability in AB White, 21-25° C. (content by LCMSMS) (day 23): 0.316 µg/mL
- Stability in AB White, 21-25° C. (content by LCMSMS) (day 24): 0.308 µg/mL
- Stability in AB White, 21-25° C. (content by LCMSMS) (day 25): 0.310 µg/mL
- Stability in AB White, 21-25° C. (content by LCMSMS) (day 26): 0.308 µg/mL
- Stability in AB White, 21-25° C. (content by LCMSMS) (day 29): 0.317 µg/mL
- Stability in AB White, 21-25° C. (content by LCMSMS) (day 30): 0.317 µg/mL
- Stability in AB White, 21-25° C. (content by LCMSMS) (day 60): 0.306 µg/mL
- Stability in AB White, 21-25° C. (content by LCMSMS) (day 90): 0.305 µg/mL
- Stability in AB White, 21-25° C. (content by LCMSMS) (day 120): 0.318 µg/mL
- Stability in AB White, 21-25° C. (content by LCMSMS) (day 150): 0.312 µg/mL
- Stability in AB White, 21-25° C. (content by LCMSMS) (day 180): 0.315 µg/mL
- Stability in AB White, 21-25° C. (content by LCMSMS) (day 210): 0.307 µg/mL
- Stability in AB White, 21-25° C. (content by LCMSMS) (day 240): 0.304 µg/mL
- Stability in AB White, 21-25° C. (content by LCMSMS) (day 270): 0.316 µg/mL
- Stability in AB White, 21-25° C. (content by LCMSMS) (day 300): 0.312 µg/mL
- Stability in AB White, 21-25° C. (content by LCMSMS) (day 330): 0.312 µg/mL
- Stability in AB White, 21-25° C. (content by LCMSMS) (day 360): 0.310 µg/mL
- Stability in AB White, 21-25° C. (content by LCMSMS) (day 390): 0.303 µg/mL
- Stability in AB White, 21-25° C. (content by LCMSMS) (day 420): 0.312 µg/mL
- Stability in AB White, 21-25° C. (content by LCMSMS) (day 450): 0.310 µg/mL
- Stability in AB White, 21-25° C. (content by LCMSMS) (day 480): 0.294 µg/mL
- Stability in AB White, 21-25° C. (content by LCMSMS) (day 510): 0.293 µg/mL
- Stability in AB White, 21-25° C. (content by LCMSMS) (day 540): 0.294 µg/mL
- Stability in AB White, 21-25° C. (content by LCMSMS) (day 570): 0.295 µg/mL

Source: US20240415914A1, “Water Dispersible Cannabinoid Compositions” (priority 2021, published 2024)
